Blank lines part the entries; values can stand above or below the molecule they belong to. Bridge positions count the residues as written; N and C are the ends. Ends that are not written are not given here.
Assays:
IR wild-type (WT) = target: T1, IR wild-type (WT) (Homo sapiens, UniProt P06213); assay: IR activation (auto-phosphorylation) assay in 293 FT cells expressing IR WT; assay type: cell-based; settings: 293 FT cells expressing IR WT; 10 nM for 10 min
T1 construct: expressed in transfected cells; host or cells: 293 FT cells
Method: The insulin receptor signaling assay was performed as described earlier with some modifications. For the activation assay, the short isoform of human IR in pCS2-MYC was used as described previously. Plasmid transfections into 293 FT cells were performed with Lipofectamin™ 2000 (Invitrogen).
(§1) The cells were incubated with the lysis buffer B [50 mM Hepes pH 7.4, 150 mM NaCl, 10% Glycerol, 1% Triton X-100, 1 mM EDTA, 100 mM sodium fluoride, 2 mM sodium orthovanadate, 20 mM sodium pyrophosphate, 0.5 mM dithiothreitol (DTT), 2 mM phenylmethylsulfonyl fluoride (PMSF)] supplemented with complete Protease Inhibitor Cocktail (Roche), PhosSTOP (Sigma), and 25 U/ml turbo nuclease (Accelagen) on ice for 1 hr. After centrifuge at 20,817 g at 4° C. for 10 min, the concentrations of cell lysate were measured using Micro BCA Protein Assay Kit (Thermo Scientific). About 50-60 μg total proteins were analyzed by SDS-PAGE and quantitative Western blotting. The following antibodies were purchased from commercial sources: Anti-IR-pY1150/1151 (WB, 1:1000; 19H6; labeled as pY IR, Cat. #3024), anti-AKT (WB, 1:1000; 40D4, Cat. #2920), anti-pS473 AKT (WB, 1:1000; D9E, Cat. #4060), anti-ERK1/2 (WB, 1:1000; L34F12, Cat. #4696), anti-pERK1/2 (WB, […]; 197G2, Cat. #4377), anti-IRS1-pS616 (WB, 1:1000; C15H5, Cell Signaling, Cat. #3203); anti-IRS1 (WB, 1:1000; A301-158A, Bethyl Laboratory); anti-IR (WB, 1:500, CT-3, Santa Cruz; labeled as IR for primary hepatocytes and MEFs, Cat. #sc-57342); anti-IR (WB, 1:1000; EPR23566-103; labeled as IR for FIG. 31, ab278100, Abcam); anti-Myc (WB, 1:2000; 9E10, Cat. #11667149001, Roche; labeled as IR for 293 FT cells). For quantitative western blots, anti-rabbit immunoglobulin G (IgG) (H+L) (WB, 1:5000; Dylight 800 conjugates, Cat. #5151) and anti-mouse IgG (H+L) (WB, 1:5000; Dylight 680 conjugates, Cat. #5470) (Cell Signaling) were used as secondary antibodies. The membranes were scanned with the Odyssey Infrared Imaging System (Li—COR, Lincoln, NE).

Insulin tolerance test = assay type: in vivo, mice; settings: intraperitoneal; for blood glucose levels in ITT: FIGS. 10A, 8F, 8G; for blood glucose in insulin tolerance assays: FIGS. 12B, 12C
Method: Insulin tolerance tests were performed as described previously with some modification. Briefly, 2-3 months old male mice were fasted for 2 hr. and their blood glucose levels (T=0) were measured with tail bleeding using a glucometer (AlphaTRAK). After then, mice were injected intraperitoneally with Humulin (6 nmol/kg body weight), S597 (9 nmol/kg), S597-S20D (9 nmol/kg), S597-W6A (9 nmol/kg), S597-F27A (9 nmol/kg), or S597-N20 (27 nmol/kg), and their blood glucose levels were measured at the indicated time points after injection.

IR signaling [1] = assay: IR signaling in primary mouse hepatocytes; assay type: cell-based
Method: Primary hepatocytes were isolated from 2-month-old male mice with a standard two-step collagenase perfusion procedure as described earlier with some modifications. […] After 1-2 sec upon appearance of white spots in the liver, the portal vein was cut with scissors to wash out blood, and then the liver was perfused with 30 ml of Liver Digest Medium (Thermo Scientific, Cat. #17703034). Dissected liver was gently washed with low glucose DMEM and transferred to sterile culture dish containing 15 ml Liver Digest Medium. The isolated liver cells were filtered through the 70 μm cell strainer into a 50 ml tube. After centrifuge at 50 g for 5 min at 4° C., cells were washed with cold low glucose DMEM three times. […] After 2 hr., the medium was changed to serum free low-glucose DMEM.
as §1

IR signaling [2] = assay: Insulin signaling in vivo (liver, skeletal muscle, WAT lysates, western blot); design: species or system mice; settings: WAT; compared to vehicle treated conditions
Method: 2-3 months old male mice were fasted overnight. […] Livers were removed at 3 min after injection. White adipose tissue and skeletal muscles were removed at 5 min and 7 min after injection, respectively. Tissues were mixed with the lysis buffer B supplemented with complete Protease Inhibitor Cocktail (Roche), PhosSTOP (Sigma), and 25 U/ml turbo nuclease (Accelagen), homogenized with FisherbrandTM Bead Mill homogenizer, and then incubated on ice for 1 hr. After centrifuge at 20,817 g at 4° C. for 30 min, the concentrations of cell lysate were measured using Micro BCA Protein Assay Kit (Thermo Scientific). The lysates were then analyzed by quantitative western blotting.

SREBP1 = assay: Immunofluorescence assay for SREBP1 translocation in primary hepatocytes; assay type: cell-based, mouse; settings: 100 nM for 30 min
Method: Primary hepatocytes were as described in the primary hepatocyte isolation section. […] Cells were fixed with 4% paraformaldehyde for 10 min. The fixed cells were incubated with PBS for 30 min and 3% BSA in PBS with 0.1% Triton X-100 (0.1% PBST) for 1 hr., and then treated with anti-SREBP1 antibodies (20B12, Millipore, Cat. #MABS1987, 1:200) in 3% BSA in 0.1% PBST at 4° C. overnight. After being washed, cells were incubated with secondary antibodies (Alexa Fluor 488 goat anti-rabbit, Invitrogen, Cat. #A11008, 1:200) for 1 hr. Cells were washed and mounted on microscope slides in ProLong Gold Antifade reagent with DAPI (Invitrogen). Images were acquired as a series of 0.2 μm stacks with a Leica Thunder Imager (Leica Microsystems Inc.). Raw images were deconvolved using LAS X Software (Leica Microsystems Inc.). The nuclear edges and the nuclear SREBP1 signal were defined with Image J. Identical exposure times and magnifications were used for all comparative analyses.

C2C12 cells = assay: MTT assay in C2C12 cells; assay type: cell-based
Method: To examine the function of […] on cell viability and growth, an MTT assay was performed in C2C12 cells.

[3] = Chronic treatment by osmotic minipump; assay type: in vivo, mice
Description: 2-month-old male mice were implanted with osmotic minipump releasing Humulin (0.2 U/day), S597 (0.3 U/day), or S597-S20D (0.3 U/day). […] Hepes, N=7; Humulin, N=8; S597, N=7; S597-S20D, N=4. […] Hepes, N=7; Humulin, N=8; S597, N=9; S597-S20D, N=4. Two-way ANOVA followed by Tukey's multiple comparisons test. […] Mean±SEM. Hepes, N=8; Humulin, N=7; S597, N=9; S597-S20D, N=5. […] Hepes, N=4; Humulin and S597 analogs, N=5. two-tailed Student's t-test. All graphs show Mean±SEM.
To examine the long-term effects of S597 in vivo, C57BL/6J WT mice were implanted with osmotic minipumps releasing either HEPES, Humulin, or mimetics. […] Consistent with previous work, chronic treatment of Humulin increased body weight (FIGS. 11E, 11F).

[4] = target: T2, full-length mouse insulin receptor, short isoform, D1122N Y962F (mouse, UniProt P15208 28-1372); assay: cryo-EM of full-length IR with S597, 5.4 Å
T2 construct: mature; Residue numbers are as printed; also called MmIR; IR
Method: (§2) The cryo-EM grid was prepared by applying 3 μl of the protein samples (6 mg/ml) to glow-discharged Quantifoil R1.2/1.3 300-mesh gold holey carbon grids (Quantifoil, Micro Tools GmbH, Germany). Grids were blotted for 4.0 seconds under 100% humidity at 4° C. before being plunged into the liquid ethane using a Mark IV Vitrobot (FEI). Micrographs were acquired on a Titan Krios microscope (FEI) operated at 300 kV with a K3 direct electron detector (Gatan), using a slit width of 20 eV on a GIF-Quantum energy filter. SerialEM 3.8 was used for the data collection. […] The defocus range was set from 1.6 μm to 2.6 μm. Each micrograph was dose-fractionated to 30 frames with a total dose of about 60 e⁻/Å².

[5] = target: T2, full-length mouse insulin receptor, …; assay: cryo-EM of full-length IR with S597-N20
Method: as §2

T1 sequence (P06213 28-1370 isoform P06213-2 limits assumed): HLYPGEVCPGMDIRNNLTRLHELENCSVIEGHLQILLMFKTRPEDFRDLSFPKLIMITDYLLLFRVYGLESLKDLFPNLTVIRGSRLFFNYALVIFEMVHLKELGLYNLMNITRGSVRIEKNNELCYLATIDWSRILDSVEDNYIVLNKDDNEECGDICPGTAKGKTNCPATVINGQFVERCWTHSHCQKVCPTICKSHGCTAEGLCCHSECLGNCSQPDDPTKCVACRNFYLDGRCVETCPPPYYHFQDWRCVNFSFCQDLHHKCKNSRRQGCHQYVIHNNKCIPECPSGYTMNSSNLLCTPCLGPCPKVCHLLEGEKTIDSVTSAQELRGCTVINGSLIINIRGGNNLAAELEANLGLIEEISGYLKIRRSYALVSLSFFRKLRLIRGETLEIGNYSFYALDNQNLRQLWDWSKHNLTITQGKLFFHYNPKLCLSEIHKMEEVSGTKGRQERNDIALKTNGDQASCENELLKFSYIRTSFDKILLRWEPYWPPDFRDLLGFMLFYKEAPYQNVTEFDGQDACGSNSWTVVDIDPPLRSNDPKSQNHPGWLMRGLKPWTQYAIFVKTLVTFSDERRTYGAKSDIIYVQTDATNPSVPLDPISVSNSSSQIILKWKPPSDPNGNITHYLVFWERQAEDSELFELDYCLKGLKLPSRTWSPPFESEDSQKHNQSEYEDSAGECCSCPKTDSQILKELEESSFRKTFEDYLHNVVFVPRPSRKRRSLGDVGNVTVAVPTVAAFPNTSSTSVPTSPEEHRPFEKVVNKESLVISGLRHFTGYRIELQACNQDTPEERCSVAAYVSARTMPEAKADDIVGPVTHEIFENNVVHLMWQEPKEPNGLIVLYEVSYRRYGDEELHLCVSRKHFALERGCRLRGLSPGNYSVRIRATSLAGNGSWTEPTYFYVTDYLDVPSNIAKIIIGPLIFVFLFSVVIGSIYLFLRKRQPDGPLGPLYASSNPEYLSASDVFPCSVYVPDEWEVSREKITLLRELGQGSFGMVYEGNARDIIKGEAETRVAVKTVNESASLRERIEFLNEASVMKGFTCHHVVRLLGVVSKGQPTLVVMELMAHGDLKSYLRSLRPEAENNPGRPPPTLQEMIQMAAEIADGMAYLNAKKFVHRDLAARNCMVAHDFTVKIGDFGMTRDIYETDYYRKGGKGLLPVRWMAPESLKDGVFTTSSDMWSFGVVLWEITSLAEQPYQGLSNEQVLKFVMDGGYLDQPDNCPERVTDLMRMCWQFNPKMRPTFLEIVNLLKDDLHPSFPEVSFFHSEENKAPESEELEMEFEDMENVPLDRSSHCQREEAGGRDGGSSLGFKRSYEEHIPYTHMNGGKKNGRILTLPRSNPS
T1 sequence (P06213 763-1382 partner limits assumed): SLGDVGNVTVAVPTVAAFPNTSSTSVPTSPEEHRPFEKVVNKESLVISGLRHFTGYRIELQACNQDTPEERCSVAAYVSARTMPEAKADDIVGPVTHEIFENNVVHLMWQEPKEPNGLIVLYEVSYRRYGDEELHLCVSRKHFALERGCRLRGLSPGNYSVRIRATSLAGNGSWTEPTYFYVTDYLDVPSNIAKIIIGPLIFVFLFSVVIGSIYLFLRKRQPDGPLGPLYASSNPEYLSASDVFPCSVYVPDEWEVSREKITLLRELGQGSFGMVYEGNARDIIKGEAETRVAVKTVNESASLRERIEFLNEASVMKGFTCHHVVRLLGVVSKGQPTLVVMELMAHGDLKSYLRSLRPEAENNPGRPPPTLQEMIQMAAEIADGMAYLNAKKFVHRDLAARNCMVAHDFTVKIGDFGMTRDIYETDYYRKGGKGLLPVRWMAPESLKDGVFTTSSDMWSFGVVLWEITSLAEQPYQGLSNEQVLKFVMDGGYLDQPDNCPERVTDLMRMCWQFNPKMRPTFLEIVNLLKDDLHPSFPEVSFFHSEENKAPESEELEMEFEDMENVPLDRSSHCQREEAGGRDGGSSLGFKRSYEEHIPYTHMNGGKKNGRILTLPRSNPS
T2 sequence (P15208 28-1372 Y989F/D1149N limits assumed): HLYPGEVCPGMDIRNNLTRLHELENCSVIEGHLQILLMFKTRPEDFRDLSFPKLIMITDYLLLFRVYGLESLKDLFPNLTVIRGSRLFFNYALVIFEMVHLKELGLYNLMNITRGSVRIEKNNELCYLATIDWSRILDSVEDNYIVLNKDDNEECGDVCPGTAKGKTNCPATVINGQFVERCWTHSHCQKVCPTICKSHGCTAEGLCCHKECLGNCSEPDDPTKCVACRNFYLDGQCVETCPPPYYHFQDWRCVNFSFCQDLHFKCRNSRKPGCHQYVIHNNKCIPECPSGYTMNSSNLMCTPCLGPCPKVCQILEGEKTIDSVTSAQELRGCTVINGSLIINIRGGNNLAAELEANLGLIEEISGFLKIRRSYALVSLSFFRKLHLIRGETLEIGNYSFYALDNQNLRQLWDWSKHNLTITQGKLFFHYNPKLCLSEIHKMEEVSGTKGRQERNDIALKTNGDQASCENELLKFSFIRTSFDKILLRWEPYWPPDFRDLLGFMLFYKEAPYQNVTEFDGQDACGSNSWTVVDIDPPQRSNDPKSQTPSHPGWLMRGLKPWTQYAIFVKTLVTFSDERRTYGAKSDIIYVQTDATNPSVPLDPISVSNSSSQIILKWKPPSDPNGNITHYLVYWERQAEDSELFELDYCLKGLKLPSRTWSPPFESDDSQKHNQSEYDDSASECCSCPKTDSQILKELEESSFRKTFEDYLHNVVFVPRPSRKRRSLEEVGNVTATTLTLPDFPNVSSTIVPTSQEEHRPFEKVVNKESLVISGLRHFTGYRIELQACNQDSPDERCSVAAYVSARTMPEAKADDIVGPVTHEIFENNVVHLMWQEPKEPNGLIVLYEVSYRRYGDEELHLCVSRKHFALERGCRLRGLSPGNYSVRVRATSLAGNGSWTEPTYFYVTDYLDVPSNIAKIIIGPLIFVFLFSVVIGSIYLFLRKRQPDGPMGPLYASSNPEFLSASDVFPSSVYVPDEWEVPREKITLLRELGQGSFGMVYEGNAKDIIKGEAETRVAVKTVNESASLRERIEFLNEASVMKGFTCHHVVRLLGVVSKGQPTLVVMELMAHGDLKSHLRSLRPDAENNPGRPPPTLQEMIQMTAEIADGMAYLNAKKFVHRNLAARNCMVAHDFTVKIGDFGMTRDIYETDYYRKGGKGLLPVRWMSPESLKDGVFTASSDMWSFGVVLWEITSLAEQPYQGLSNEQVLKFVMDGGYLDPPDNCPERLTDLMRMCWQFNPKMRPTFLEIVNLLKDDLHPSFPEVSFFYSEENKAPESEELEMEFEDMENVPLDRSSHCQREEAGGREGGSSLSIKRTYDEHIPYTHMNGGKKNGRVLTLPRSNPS

Molecule: insulin
- pAKT level (IR signaling [2]): significantly increased
- pERK level (IR signaling [2]): neither insulin nor S597 had a statistically significant effect
- pAKT (IR signaling [1]): increased
- pERK (IR signaling [1]): increased
- pY IR (IR signaling [1]): increased
- nuclear translocation of SREBP1 (SREBP1): stimulated to the same level
- cell viability and growth (C2C12 cells): significantly increased

Molecule: insulin-like growth factor 1 [IGF1]
- cell viability and growth (C2C12 cells): significantly increased

Molecule: Humulin: Humulin (human insulin), Eli Lilly
- blood glucose levels in ITT (Insulin tolerance test): lowered
- body weight gain [3]: increased
- C-peptide (insulin secretion) ([3]; serum, 4 h fasted mice): decreased

B2: S597-N20 (peptide)
peptide: Ac-SLEEEWAQIECEVYGRGCPS
modifications: disulfide 11-18 (inferred)
notes: also called S597-component-2; S597-component-2 alone
- binding result [5]: binds

The next lines start with results.

- IR activation (auto-phosphorylation of IR, pY IR) (IR wild-type (WT)): greatly reduced potency
Molecule: S597-F27A: S597-component-1 mutant, interrupts the IR L1/S597-component-1 interaction (Ac-SLEEEWAQIECEVYGRGCPSESFYDWAERQL; disulfide 11-18 (inferred))
- blood glucose levels in ITT (Insulin tolerance test): did not reduce
- blood glucose in insulin tolerance assays (Insulin tolerance test): did not reduce glucose levels, but rather elevated them

- IR activation (auto-phosphorylation of IR, pY IR) (IR wild-type (WT)): greatly reduced potency
Molecule: S597-N20: N-terminal 20 residues of S597 comprising only component-2 and the linker (Ac-SLEEEWAQIECEVYGRGCPS; disulfide 11-18 (inferred))
- pAKT (IR signaling [1]): did not induce phosphorylation
- pERK (IR signaling [1]): did not induce phosphorylation
- pY IR (IR signaling [1]): did not induce phosphorylation
- blood glucose levels in ITT (Insulin tolerance test): did not reduce
- blood glucose in insulin tolerance assays (Insulin tolerance test): did not reduce glucose levels, but rather elevated them

- IR activation (auto-phosphorylation of IR, pY IR) (IR wild-type (WT)): greatly reduced potency
Molecule: S597-W6A: S597-component-2 mutant, disrupts the IR FnIII-1/S597-component-2 interaction (Ac-SLEEEAAQIECEVYGRGCPSESFYDWFERQL; disulfide 11-18 (inferred))
- blood glucose levels in ITT (Insulin tolerance test): did not reduce
- blood glucose in insulin tolerance assays (Insulin tolerance test): did not reduce glucose levels, but rather elevated them

- stoichiometry (S597: IR dimer) [4]: 2 S597 per IR dimer
B1: S597 (peptide)
peptide: Ac-SLEEEWAQIECEVYGRGCPSESFYDWFERQL
modifications: disulfide 11-18 (inferred)
notes: Component-2 (N-terminal helix), linker, component-1 (C-terminal helix); also called full-length S597

Reference: patent US20250250303A1 (THE TRUSTEES OF COLUMBIA UNIVERSITY IN THE CITY OF NEW YORK, priority 2022, published 2025)
